The values below come from BindingDB's records for doi:10.1021/np070259w (Institute of Plant Biochemistry, 2007).

Each structure is given as a SMILES string. Where a name gives a salt, the structure may show the parent alone.

This experiment in a line: Inhibition of equine BChE at 100 uM by Ellman's method. For orientation: DTNB colorimetry detects thiols as they appear.

As usually defined, the IC50 is the concentration that inhibits the measured activity by half.

As for `CNC(=O)Oc1ccc2c(c1)[C@]1(C)CCN(C)[C@@H]1N2C` [(3aS,8aR)-1,3a,8-trimethyl-1,2,3,3a,8,8a-hexahydropyrrolo[2,3-b]indol-5-yl methylcarbamate hydrochloride], the IC50 came out at 3.5 µM.
